What was measured:
Type in all cases: biochemical
CaMKIIδ(h) = CaMKIIδ(h) (Homo sapiens, UniProt Q13557); assay: Kinase selectivity panel (residual activity at 1 μM); conditions: inhibitor at 1 μM; read-out: residual kinase activity in % of maximal activity
cKit(h) = cKit(h) (Homo sapiens, UniProt P10721); assay: as above; conditions: inhibitor at 1 μM; read-out: residual kinase activity in % of maximal activity
IGF-1R(h) = IGF-1R(h) (Homo sapiens, UniProt P08069); assay: as above; conditions: inhibitor at 1 μM; read-out: residual kinase activity in % of maximal activity
JAK2(h) = JAK2(h) (Homo sapiens, UniProt O60674); assay: as above; conditions: inhibitor at 1 μM
JAK3(h) = JAK3(h) (Homo sapiens, UniProt P52333); assay: as above; conditions: inhibitor at 1 μM; read-out: residual kinase activity in % of maximal activity
PKCα(h) = PKCα(h) (Homo sapiens, UniProt P17252); assay: as above; conditions: inhibitor at 1 μM; read-out: residual kinase activity in % of maximal activity
Ret(h) = Ret(h) (Homo sapiens, UniProt P07949); assay: as above; conditions: inhibitor at 1 μM; read-out: residual kinase activity in % of maximal activity
CaMKIIα F89G = CaMKIIα F89G (Homo sapiens, UniProt Q9UQM7, F89G); assay: In vitro kinase reactions with CaMKII F89G ± NM-PP1 (pT286, pS831); conditions: 10 µM NM-PP1
Protocol: Fig. 4 The CaMKII mutation F89G impairs ATP binding but binds the ATP-competitive inhibitor NM-PP1 that restores GluN2B binding and LTP-induced synaptic translocation. Data are presented as mean values ± s.e.m. a, Schematic of the pharmacogenetic method of ATP-competitive CaMKII inhibition; enlargement of the CaMKII ATP-binding pocket by the F89G mutation allows for selective binding of the ATP-competitive inhibitor NM-PP1. b, Immunoblots of in vitro kinase reactions at 30 °C including GFP–CaMKII WT, K42M and F89G with GST–GluA1-c tail. […] Correlation indices were measured before and after Ionomycin-induced colocalization of GFP–CaMKII (WT, K42M and F89G) with mCherry-2BC, represented as change in the correlation index (vehicle: n = 22, 17, 12 cells; NM-PP1: n = 20, 24, 13 cells; one-way ANOVA, Tukey’s multiple comparisons test). […] CaMKII synaptic enrichment was measured before and after cLTP (n = 13, 14, 14 cells; RM two-way ANOVA with Šídák’s multiple comparisons test). […] CaMKII synaptic enrichment was measured before and after cLTP (n = 7, 6, 7 cells; RM two-way ANOVA with Šídák’s multiple comparisons test). […]
CaMKII-mediated phosphorylation of GluA1 S831 or GluN2B S1303 was measured by in vitro kinase reaction with a purified GST–GluA1 C-terminal tail or GST-GluN2B C-terminal tail. […]

Chain of IGF-1R(h) (P08069 31-1367): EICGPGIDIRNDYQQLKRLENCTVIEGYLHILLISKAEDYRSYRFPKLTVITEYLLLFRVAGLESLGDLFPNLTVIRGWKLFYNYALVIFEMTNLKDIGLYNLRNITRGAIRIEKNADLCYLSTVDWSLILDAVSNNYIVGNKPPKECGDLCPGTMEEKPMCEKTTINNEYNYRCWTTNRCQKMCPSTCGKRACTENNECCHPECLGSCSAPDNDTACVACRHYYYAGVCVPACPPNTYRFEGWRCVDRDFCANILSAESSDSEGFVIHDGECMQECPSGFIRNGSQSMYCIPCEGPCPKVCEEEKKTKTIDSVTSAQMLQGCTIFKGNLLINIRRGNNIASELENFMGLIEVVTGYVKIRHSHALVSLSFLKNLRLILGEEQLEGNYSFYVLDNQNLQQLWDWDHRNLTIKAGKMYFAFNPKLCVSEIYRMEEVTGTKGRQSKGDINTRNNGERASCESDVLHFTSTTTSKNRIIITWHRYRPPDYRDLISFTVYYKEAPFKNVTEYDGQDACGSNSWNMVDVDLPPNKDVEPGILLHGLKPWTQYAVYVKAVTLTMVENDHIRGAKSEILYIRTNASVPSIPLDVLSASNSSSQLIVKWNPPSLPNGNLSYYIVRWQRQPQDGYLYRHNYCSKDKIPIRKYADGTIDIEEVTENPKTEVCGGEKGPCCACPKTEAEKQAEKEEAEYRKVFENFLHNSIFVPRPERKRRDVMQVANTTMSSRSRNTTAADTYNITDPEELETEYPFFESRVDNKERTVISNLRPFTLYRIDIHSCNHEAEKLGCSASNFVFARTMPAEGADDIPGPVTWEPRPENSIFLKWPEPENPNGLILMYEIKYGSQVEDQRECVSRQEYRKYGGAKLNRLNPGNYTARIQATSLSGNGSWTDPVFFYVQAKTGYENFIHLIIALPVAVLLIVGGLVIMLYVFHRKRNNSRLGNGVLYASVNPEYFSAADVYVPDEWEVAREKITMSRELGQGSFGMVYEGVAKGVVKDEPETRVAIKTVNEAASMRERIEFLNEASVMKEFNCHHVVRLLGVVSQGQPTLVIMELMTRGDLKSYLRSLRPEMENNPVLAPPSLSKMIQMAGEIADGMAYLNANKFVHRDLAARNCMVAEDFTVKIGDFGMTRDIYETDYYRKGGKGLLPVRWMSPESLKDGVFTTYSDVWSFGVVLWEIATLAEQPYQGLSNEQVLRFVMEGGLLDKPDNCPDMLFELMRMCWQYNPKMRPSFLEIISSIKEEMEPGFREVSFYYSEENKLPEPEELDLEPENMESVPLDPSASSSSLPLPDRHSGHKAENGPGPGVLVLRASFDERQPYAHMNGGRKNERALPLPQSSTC
Chain of JAK2(h) (O60674 whole entry): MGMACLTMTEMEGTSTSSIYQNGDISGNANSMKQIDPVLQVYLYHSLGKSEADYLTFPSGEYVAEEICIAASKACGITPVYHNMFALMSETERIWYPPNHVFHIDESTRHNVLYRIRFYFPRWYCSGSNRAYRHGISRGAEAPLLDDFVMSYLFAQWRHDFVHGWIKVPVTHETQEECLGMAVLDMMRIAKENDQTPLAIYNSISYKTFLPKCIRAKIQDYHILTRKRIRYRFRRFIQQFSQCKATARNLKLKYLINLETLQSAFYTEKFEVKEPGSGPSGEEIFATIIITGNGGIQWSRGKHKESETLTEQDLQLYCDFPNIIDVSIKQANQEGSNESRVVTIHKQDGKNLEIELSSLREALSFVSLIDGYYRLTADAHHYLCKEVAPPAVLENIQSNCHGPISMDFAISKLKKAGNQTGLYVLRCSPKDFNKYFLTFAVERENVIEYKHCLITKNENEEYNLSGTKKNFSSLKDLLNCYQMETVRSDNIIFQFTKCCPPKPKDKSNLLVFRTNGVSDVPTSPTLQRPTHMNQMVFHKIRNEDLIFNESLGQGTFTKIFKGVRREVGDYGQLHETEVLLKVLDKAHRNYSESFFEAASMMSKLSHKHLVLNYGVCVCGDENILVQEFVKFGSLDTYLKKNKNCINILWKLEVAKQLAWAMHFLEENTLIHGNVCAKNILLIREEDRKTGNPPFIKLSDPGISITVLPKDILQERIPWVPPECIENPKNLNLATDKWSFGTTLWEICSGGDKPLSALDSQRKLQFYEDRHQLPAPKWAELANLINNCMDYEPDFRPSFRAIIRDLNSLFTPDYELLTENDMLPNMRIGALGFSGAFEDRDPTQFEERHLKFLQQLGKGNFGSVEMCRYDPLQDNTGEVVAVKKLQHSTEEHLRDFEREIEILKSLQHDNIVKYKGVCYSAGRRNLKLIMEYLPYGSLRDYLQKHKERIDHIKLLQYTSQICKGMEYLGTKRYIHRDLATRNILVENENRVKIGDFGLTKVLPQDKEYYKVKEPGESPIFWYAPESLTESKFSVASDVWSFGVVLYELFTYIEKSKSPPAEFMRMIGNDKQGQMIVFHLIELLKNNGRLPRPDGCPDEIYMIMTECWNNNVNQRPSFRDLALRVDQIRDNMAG
Chain of cKit(h) (P10721 26-976): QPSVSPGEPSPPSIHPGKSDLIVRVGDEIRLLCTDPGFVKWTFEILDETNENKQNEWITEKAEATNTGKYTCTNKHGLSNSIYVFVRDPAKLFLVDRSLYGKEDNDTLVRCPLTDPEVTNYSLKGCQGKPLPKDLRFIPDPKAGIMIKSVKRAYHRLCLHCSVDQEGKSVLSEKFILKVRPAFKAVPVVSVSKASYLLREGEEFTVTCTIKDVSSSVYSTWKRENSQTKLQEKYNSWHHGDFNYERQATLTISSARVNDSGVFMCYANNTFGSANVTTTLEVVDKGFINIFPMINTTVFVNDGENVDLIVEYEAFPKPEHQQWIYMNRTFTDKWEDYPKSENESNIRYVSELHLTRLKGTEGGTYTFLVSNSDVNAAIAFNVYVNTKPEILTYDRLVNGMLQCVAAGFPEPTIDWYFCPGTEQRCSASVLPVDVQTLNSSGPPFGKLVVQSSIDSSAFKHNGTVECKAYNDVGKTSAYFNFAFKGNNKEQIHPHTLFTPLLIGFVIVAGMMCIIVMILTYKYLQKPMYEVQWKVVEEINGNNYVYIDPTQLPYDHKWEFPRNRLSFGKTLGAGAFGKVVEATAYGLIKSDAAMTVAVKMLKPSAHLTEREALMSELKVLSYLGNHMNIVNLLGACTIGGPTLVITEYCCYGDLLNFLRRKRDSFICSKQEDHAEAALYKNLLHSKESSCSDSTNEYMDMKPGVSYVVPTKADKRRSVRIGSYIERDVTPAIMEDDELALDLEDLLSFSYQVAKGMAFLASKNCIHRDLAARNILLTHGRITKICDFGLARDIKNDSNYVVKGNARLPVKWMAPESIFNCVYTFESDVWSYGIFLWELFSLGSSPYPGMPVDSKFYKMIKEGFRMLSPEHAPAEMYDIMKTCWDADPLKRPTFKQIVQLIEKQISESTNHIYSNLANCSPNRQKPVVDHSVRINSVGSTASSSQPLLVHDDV
Chain of CaMKIIδ(h) (Q13557 whole entry): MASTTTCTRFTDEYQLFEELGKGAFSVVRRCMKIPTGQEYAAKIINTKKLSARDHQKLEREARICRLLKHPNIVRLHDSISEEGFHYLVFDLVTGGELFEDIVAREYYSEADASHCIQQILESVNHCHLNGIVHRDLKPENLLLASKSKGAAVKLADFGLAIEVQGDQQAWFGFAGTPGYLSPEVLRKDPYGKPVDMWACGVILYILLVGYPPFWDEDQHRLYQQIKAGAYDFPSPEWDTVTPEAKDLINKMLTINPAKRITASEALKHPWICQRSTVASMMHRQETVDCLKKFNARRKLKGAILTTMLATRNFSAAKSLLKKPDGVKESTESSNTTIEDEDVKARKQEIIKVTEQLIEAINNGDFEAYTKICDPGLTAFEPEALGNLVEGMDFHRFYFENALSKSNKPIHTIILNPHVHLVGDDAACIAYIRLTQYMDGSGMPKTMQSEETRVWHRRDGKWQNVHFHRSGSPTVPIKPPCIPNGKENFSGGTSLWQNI

| SMILES | remaining activity at 1 µM (CaMKIIδ(h)) [%] | remaining activity at 1 µM (cKit(h)) [%] | remaining activity at 1 µM (IGF-1R(h)) [%] | residual kinase activity in % of maximal activity (JAK2(h)) [%] | remaining activity at 1 µM (JAK3(h)) [%] | remaining activity at 1 µM (PKCα(h)) [%] | remaining activity at 1 µM (Ret(h)) [%] | effect on residual activity of CaMKII F89G (CaMKIIα F89G) |
| --- | --- | --- | --- | --- | --- | --- | --- | --- |
| NCCNc1cccc(-c2ccnc3[nH]c4ccccc4c23)c1 [AS283] | 2 | 50 | 110 | 121 | 92 | 49 | 44 | – |
| CC(C)(C)n1nc(Cc2cccc3ccccc23)c2c(N)ncnc21 [NM-PP1] | – | – | – | – | – | – | – | further reduced |

— paper PMC10482691, “LTP induction by structural rather than enzymatic functions of CaMKII” (Nature, 2023)
